These results are taken from patent publication US8524755B2 (priority 2009, dated 2013).

The target in one assay is T1, Endothelin ETA (h) (Homo sapiens, UniProt P25101).
T1 construct: expressed in transfected cells; host or cells: CHO cells
T1 sequence (P25101 21-427): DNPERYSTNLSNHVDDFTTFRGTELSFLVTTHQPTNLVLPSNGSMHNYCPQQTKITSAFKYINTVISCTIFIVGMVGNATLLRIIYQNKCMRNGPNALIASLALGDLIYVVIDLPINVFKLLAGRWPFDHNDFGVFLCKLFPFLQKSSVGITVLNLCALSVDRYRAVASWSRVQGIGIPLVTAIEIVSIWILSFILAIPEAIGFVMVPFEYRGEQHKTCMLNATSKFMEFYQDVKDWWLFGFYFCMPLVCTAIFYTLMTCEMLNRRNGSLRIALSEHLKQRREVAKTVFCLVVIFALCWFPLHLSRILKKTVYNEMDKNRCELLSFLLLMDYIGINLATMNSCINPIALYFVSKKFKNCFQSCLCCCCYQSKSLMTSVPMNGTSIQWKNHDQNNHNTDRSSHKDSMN
Nature of the assay: Binding ETA (h) (ag). The settings on record: read-out: % Inhibition of Control Specific Binding @ 10 μM. The method, then: (§1) Radioligand binding assay methods utilized to measure the activity of compounds of the invention will be familiar to those skilled in the art. In each assay case, the assay components such as, for example, the cell-type, ligand, reference compound and the like, will be familiar to practitioners of such an assay.
(§2) Analysis and Expression of Results: Compounds of the invention were tested in the biochemical assays and percent inhibition of specific binding was determined. The specific ligand binding to the receptors is defined as the difference between the total binding and the nonspecific binding determined in the presence of an excess of unlabelled ligand. The results are expressed as a percent inhibition of control specific binding (100−((measured specific binding/control specific binding)×100)) obtained in the presence of test compounds.

In a further assay the test system is I2. Nature of the assay: Binding I2 (aa). The arrangement: species or system rat. The method, then: as §1, §2
The target of another assay is T2, CysLT1 (LTD4) (h) (Homo sapiens, UniProt Q9Y271).
T2 construct: expressed in transfected cells; host or cells: CHO cells
T2 sequence (Q9Y271 1-337): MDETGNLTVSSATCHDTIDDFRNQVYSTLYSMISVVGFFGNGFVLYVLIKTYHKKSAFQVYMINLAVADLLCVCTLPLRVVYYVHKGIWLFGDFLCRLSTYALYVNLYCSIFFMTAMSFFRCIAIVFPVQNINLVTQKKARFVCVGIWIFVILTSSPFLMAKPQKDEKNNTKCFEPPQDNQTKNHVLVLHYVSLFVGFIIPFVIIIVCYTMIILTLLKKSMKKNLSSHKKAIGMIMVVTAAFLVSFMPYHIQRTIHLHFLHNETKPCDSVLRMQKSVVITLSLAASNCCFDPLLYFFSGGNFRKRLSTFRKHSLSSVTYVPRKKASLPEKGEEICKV
Nature of the assay: Binding CysLT1 (LTD4) (ag). As to conditions: read-out: % Inhibition of Control Specific Binding @ 10 μM. Here is the method: as §1, §2

The target in the next assay is T3, Neurokinin NK3 (h) (Homo sapiens, UniProt P29371).
T3 construct: expressed in transfected cells; host or cells: CHO cells
T3 sequence (P29371 1-465): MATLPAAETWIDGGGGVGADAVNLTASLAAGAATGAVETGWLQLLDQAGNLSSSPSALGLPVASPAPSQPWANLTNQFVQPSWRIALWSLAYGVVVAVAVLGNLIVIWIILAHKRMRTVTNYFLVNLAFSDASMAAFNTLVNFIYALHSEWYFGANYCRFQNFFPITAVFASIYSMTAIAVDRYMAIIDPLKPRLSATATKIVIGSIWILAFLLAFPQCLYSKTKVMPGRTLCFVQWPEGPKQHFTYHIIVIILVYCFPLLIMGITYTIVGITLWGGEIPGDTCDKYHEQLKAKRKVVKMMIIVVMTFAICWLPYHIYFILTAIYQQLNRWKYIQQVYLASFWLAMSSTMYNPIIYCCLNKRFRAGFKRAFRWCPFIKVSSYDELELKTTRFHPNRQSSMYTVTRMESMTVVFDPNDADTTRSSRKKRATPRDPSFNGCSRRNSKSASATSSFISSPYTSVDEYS
Nature of the assay: Binding NK3 (h) (aa). The settings on record: read-out: % Inhibition of Control Specific Binding @ 10 μM. The method, then: as §1, §2

A further assay concerns PCP. Nature of the assay: Binding PCP (aa). The arrangement: species or system rat. The method, then:
as §1, §2

In the next assay the test system is P2Y. Nature of the assay: Binding P2Y (ag). The arrangement: species or system rat. The method, then: as §1, §2
In another assay the test system is σ (ns). Nature of the assay: Binding σ (ns) (ag). Further details: species or system rat. The method, then: as §1, §2
The target in a further assay is T4, Vasopressin V2 (h) (Homo sapiens, UniProt P30518).
T4 construct: expressed in transfected cells; host or cells: CHO cells
T4 sequence (P30518 whole entry): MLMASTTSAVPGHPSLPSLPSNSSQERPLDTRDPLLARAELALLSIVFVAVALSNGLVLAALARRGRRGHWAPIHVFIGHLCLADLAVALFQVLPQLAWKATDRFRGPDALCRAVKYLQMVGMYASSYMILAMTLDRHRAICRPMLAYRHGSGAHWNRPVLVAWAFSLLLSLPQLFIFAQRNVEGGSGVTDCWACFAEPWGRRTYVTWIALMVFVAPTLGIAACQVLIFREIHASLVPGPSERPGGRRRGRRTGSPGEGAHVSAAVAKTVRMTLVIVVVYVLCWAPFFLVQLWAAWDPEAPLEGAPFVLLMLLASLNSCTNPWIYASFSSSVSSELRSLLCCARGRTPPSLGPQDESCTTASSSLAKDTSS
Nature of the assay: Binding V2 (h) (ag). As to conditions: read-out: % Inhibition of Control Specific Binding @ 10 μM. The method, then: as §1, §2

Assay [1] concerns the target T5, norepinephrine transporter (h) (Homo sapiens, UniProt P23975).
T5 construct: expressed in transfected cells; host or cells: CHO cells
Nature of the assay: Binding norepinephrine transporter (h) (aa). The settings on record: read-out: % Inhibition of Control Specific Binding @ 10 μM. The method, then: as §1, §2

Another assay has as its target T6, PDE1B (h) (Homo sapiens, UniProt Q01064).
T6 construct: host or cells: Sf9 cells
Nature of the assay: Enzyme assay PDE1B (h). The format is biochemical. The settings on record: read-out: % Inhibition of Control Values @ 10 μM. An excerpt:
(§3) The enzyme assays provided below will be familiar to those skilled in the art.
(§4) Analysis and Expression of Results: The results are expressed as a percent of control specific activity ((measured specific activity/control specific activity)×100) obtained in the presence of the test compounds.

The target of another assay is T7, PDE3A (h) (Homo sapiens, UniProt Q14432).
T7 construct: host or cells: Sf9 cells
T7 sequence (Q14432 whole entry): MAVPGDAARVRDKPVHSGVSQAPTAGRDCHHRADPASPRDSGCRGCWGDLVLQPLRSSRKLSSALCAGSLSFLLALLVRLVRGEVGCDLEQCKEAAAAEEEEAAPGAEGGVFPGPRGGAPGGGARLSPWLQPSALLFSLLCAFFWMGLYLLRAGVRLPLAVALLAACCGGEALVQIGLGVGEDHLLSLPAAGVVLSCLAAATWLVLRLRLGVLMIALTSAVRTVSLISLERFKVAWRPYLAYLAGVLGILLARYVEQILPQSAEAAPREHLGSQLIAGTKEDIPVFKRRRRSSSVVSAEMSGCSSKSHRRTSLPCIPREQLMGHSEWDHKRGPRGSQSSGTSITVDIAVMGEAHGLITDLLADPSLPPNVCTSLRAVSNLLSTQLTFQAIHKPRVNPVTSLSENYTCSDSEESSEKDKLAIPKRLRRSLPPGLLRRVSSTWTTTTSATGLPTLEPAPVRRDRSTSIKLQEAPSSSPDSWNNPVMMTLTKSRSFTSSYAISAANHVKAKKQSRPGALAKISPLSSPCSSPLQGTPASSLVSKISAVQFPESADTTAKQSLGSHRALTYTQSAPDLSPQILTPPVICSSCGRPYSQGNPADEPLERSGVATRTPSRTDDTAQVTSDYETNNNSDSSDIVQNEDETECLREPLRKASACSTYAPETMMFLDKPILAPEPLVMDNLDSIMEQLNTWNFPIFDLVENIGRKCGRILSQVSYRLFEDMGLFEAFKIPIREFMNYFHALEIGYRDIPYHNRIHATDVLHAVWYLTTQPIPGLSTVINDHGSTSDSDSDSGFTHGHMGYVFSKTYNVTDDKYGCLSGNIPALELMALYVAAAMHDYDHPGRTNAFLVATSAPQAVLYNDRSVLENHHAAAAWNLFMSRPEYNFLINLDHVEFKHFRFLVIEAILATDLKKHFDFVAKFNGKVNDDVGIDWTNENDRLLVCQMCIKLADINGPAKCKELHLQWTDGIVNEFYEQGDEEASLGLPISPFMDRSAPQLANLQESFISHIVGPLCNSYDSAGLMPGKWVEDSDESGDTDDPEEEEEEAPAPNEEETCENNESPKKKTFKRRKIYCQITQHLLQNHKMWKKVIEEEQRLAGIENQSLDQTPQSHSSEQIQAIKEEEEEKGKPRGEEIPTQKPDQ
Nature of the assay: Enzyme assay PDE3A (h). The settings on record: read-out: % Inhibition of Control Values @ 10 μM. The format is biochemical.
Text: as §3, §4

For another assay, the target named is T8, GABA transaminase (Rattus norvegicus, UniProt P50554).
T8 construct: rat brain; from tissue; host or cells: rat brain
T8 sequence (P50554 28-500): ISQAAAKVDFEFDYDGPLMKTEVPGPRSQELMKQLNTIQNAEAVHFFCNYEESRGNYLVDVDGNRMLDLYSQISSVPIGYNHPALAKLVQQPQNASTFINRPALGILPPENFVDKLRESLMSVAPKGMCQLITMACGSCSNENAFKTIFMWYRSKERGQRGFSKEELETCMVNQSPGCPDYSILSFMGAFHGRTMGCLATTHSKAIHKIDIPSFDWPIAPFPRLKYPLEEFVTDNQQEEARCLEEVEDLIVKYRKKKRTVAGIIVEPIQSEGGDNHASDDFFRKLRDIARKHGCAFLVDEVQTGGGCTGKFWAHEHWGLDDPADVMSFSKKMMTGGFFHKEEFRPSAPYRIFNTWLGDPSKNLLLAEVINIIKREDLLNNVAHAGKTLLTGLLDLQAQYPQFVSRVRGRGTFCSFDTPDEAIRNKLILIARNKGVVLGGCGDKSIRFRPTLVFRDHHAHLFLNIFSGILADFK
Nature of the assay: Enzyme assay GABA transaminase. Type of assay: biochemical. The settings on record: read-out: % Inhibition of Control Values @ 10 μM.
Text: as §3, §4

For the next assay, the target named is T9, PNMT (Bos taurus, UniProt P10938).
T9 construct: bovine adrenal medulla; from tissue; host or cells: bovine adrenal medulla
T9 sequence (P10938 1-283): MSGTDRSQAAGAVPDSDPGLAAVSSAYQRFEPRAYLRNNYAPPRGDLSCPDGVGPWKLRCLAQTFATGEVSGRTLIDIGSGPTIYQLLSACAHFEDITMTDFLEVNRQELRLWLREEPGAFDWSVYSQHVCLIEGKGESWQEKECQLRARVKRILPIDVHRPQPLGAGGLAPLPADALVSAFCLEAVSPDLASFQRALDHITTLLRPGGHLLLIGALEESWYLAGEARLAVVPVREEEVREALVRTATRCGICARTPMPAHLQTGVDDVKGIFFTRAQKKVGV
Nature of the assay: Enzyme assay PNMT. Type of assay: biochemical, bovine. As to conditions: read-out: % Inhibition of Control Values @ 10 μM.
Text: as §3, §4

T6 sequence (Q01064 whole entry): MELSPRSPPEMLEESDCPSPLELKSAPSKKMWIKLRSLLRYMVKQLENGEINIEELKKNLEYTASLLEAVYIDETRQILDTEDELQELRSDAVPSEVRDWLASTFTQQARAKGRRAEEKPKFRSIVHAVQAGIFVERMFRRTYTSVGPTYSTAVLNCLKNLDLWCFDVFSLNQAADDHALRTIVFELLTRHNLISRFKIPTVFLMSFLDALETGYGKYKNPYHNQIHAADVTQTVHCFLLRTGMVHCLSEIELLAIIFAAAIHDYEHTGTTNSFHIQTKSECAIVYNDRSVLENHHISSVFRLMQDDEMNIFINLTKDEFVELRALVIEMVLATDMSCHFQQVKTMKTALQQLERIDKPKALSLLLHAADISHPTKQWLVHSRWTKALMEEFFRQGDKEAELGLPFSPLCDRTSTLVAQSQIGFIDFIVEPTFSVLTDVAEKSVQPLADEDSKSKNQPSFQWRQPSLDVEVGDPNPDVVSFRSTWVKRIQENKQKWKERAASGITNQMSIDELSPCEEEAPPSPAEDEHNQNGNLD
T5 sequence (P23975 whole entry): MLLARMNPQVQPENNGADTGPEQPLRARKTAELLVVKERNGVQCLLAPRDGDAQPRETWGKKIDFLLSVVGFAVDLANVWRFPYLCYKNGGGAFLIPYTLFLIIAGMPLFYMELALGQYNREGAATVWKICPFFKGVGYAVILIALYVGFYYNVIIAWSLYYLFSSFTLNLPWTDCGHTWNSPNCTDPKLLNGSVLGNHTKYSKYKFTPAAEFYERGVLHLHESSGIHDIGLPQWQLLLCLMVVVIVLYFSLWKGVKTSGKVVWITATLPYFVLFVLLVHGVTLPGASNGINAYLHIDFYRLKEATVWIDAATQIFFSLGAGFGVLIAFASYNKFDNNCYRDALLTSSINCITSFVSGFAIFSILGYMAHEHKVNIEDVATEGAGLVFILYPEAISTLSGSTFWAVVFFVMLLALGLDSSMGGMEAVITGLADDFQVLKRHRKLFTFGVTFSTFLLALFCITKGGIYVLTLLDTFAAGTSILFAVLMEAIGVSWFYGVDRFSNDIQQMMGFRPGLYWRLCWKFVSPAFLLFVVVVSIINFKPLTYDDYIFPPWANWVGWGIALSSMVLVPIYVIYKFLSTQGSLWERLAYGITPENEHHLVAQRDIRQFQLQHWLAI

In the case of `CC1(C)C(=O)N(c2ccc(C#N)c(C(F)(F)F)c2)C(=O)N1c1ccc(C(N)=O)c(F)c1` [(MIII), 4-(3-(4-cyano-3-(trifluoromethyl)phenyl)-5,5-dimethyl-2,4-dioxoimidazolidin-1-yl)-2-fluorobenzamide], the inhibition (usually the relative decrease from the control value, in per cent) at 10 µM on Endothelin ETA (h) is -12%; at CysLT1 (LTD4) (h), 11%; at Neurokinin NK3 (h), -2%; at Vasopressin V2 (h) it was 4%; in assay [1] it was 9%; on PDE1B (h), -8%. Also, the inhibition at 10 µM was 4% on PDE3A (h), -2% at GABA transaminase and -2% on PNMT. Also, the “% Inhibition of Control Specific Binding @ 10 μM” value (shortened to “% Inhibition”) with I2 is listed as 20%; with PCP, 2%; with P2Y, −1%; in the assay with σ (ns), 34%.

Turning to `CNC(=O)c1ccc(N2C(=O)N(c3ccc(C#N)c(C(F)(F)F)c3)C(=O)C2(C)C)cc1F` [(MIV), 4-(3-(4-cyano-3-(trifluoromethyl)phenyl)-5,5-dimethyl-2,4-dioxoimidazolidin-1-yl)-2-fluoro-N-methylbenzamide], the inhibition at 10 µM at Endothelin ETA (h) was -27%; at CysLT1 (LTD4) (h) it was 11%; at Neurokinin NK3 (h), -7%; at Vasopressin V2 (h) it was -1%; in assay [1], 20%; at PDE1B (h) it was -2%. Moreover, the results for the inhibition at 10 µM on PDE3A (h), at GABA transaminase and at PNMT were 2%, -1% and 14%, respectively. For the same molecule, the “% Inhibition” value in the assay with I2 stood at 8%; with PCP, 4%; with P2Y, 0%; with σ (ns), 50%.

In the case of `CC1(C)C(=O)N(c2ccc(C#N)c(C(F)(F)F)c2)C(=S)N1c1ccc(C(N)=O)c(F)c1` [(MII), 4-(3-(4-Cyano-3-(trifluoromethyl)phenyl)-5,5-dimethyl-4-oxo-2-thioxoimidazolidin-1-yl)-2-fluorobenzamide], the inhibition at 10 µM was -16% on Endothelin ETA (h); 18% on CysLT1 (LTD4) (h); 3% on Neurokinin NK3 (h); 3% at Vasopressin V2 (h); -13% in assay [1]; -11% on PDE1B (h). Further, the inhibition at 10 µM at PDE3A (h) is 0%; at GABA transaminase, -5%; at PNMT, -4%. Further, the “% Inhibition” value in the assay with I2 is 22%; in the assay on PCP, 5%; in the assay on P2Y, −2%; in the assay with σ (ns) it was 39%.

For the molecule `CC1(C)C(=O)N(c2ccc(C#N)c(C(F)(F)F)c2)C(=S)N1c1ccc(C(=O)O)c(F)c1` [(MI), 4-(3-(4-cyano-3-(trifluoromethyl)phenyl)-5,5-dimethyl-4-oxo-2-thioxoimidazolidin-1-yl)-2-fluorobenzoic acid], the inhibition at 10 µM on Endothelin ETA (h) is -21%; on CysLT1 (LTD4) (h), 3%; at Neurokinin NK3 (h), -11%; at Vasopressin V2 (h) it was 5%; in assay [1] it was 56%; on PDE1B (h), 0%. The inhibition at 10 µM was 3% at PDE3A (h), -7% at GABA transaminase and -6% on PNMT. In addition, the “% Inhibition” value in the assay with I2 is 28%; in the assay with PCP, 0%; with P2Y, −19%; in the assay with σ (ns) it was 20%.
